Results taken from patent US7919101B2 (priority 2008, dated 2011).
Where “and” joins values, the source holds several entries; their conditions need not be identical. Identical values can stand only once. Like-named read-outs stand apart in the source and are kept apart here. Residues, ends and D or L forms follow the SMILES beside them.

Assays:
[1] = system: HIV-1-mediated cell-cell fusion (H9/HIV-1IIIB cells and MT-2 cells); test: HIV-1-mediated cell-cell fusion, dye transfer assay; assay type: cell-based
Procedure: The inhibitory activities of the compounds on HIV-induced cell-cell fusion were determined using a dye transfer assay (Jiang S et al. Proc SPIE 3926:212-219, 2000). Briefly, H9/HIV-1IIIB cells were pre-labeled with a fluorescent dye, Calcein AM (Molecular Probes, Inc.), and incubated with a testing compound at a graded concentration at 37° C. for 30 min in a 96-well cell culture plate. Then the CD4^+ MT-2 cells were added to the H9/HIV-1IIIB cells at a ratio of 10:1, followed by incubation at 37° C. for 2 hrs. The fused and unfused calcein-labeled HIV-1-infected cells were counted under an inverted fluorescence microscope with an eyepiece micrometer disc.

[2] = system: HIV-1 93IN101 (subtype C, R5)
Procedure: Inhibitory activity of fusion/entry inhibitors on infection by a primary HIV-1 isolate was determined as previously described (Jiang S et al. Antimicrob Agents Chemother 48:4349-4359, 2004). Peripheral blood mononuclear cells (PBMCs) were isolated from the blood of healthy donors by standard density gradient centrifugation using Histopaque-1077 (Sigma). The cells were plated in 75 cm^2 plastic flasks and incubated at 37° C. for 2 hrs. The nonadherent cells were collected and resuspended at 5×10^6 in 10 ml RPMI-1640 medium containing 10% FBS, 5 μg/ml PHA (phytohemagglutinin) and 100 U/ml IL-2 (Sigma), followed by incubation at 37° C. for 3 days. The PHA-stimulated cells were infected with a primary HIV-1 isolates at 0.01 MOI in the absence or presence of a compound at graded concentrations. Culture media were changed every 3 days. The supernatants were collected 7 days post-infection and tested for p24 antigen by ELISA as described above. The percent inhibition of p24 production and EC50 values were calculated as described above.
4. Synergy analysis. […] In all analyses, HIV fusion/entry inhibitors were assumed to act noncompetitively, which led to a more conservative estimate of synergy. CI values<1 and >1 indicate synergy and antagonism, respectively. Dose reductions were calculated as the compound concentrations required for inhibition of HIV-1 replication when the compound was used alone and in combination. The statistic analysis was performed by the One-Way Analysis of Variance (One-Way ANOVA) method using Origin 6.1 software.

[3] = cited from earlier work
[4] = in combination T-20:T-1144 (4:1)
[5] = in combination T-20:T-1144 (4:1) vs alone
[6] = in combination T-20:T-1249:T-1144 (4:1:1)
[7] = in combination T-20:T-1249:T-1144 (4:1:1) vs alone
[8] = in combination T-20:T-1249:T-1144 (4:1:1), read-out: EC90 Concentration Mix
[9] = in combination T-1144:C34 (2:1)
[10] = in combination T-1144:C34 (2:1) vs alone
[11] = in combination T-1249:T-1144 (1:1)
[12] = in combination T-1249:T-1144 (1:1) vs alone
[13] = peptide tested alone, read-out: EC50 Concentration Alone
[14] = peptide tested alone, read-out: EC90 Concentration Alone
[15] = 93IN101, T-20+T-1249+T-1144 4:1:1
[16] = 93IN101, T-20 combined with T-1144
[17] = read-out: EC50 alone, 93IN101 (C, R5) primary isolate, peptide alone
[18] = in combination T-20:C34 (8:1) vs alone
[19] = in combination T-20:Sifuvirtide (4:1)
[20] = in combination T-20:Sifuvirtide (4:1) vs alone
[21] = in combination T-20:T-1249 (4:1)
[22] = in combination T-20:T-1249 (4:1) vs alone
[23] = in combination T-20:T-1249:C34 (8:2:1)
[24] = in combination T-20:T-1249:C34 (8:2:1) vs alone
[25] = peptide tested alone, listed as T20

## CC[C@H](C)[C@H](NC(=O)[C@H](C)NC(=O)[C@H](CCCNC(=N)N)NC(=O)[C@H](CC(=O)O)NC(=O)[C@H](Cc1c[nH]c2ccccc12)NC(=O)[C@H](C)NC(=O)[C@H](CCC(=O)O)NC(=O)[C@H](Cc1c[nH]c2ccccc12)NC(=O)[C@@H](NC(=O)[C@@H](NC(C)=O)[C@@H](C)O)[C@@H](C)O)C(=O)N[C@@H](C)C(=O)N[C@@H](CCC(=O)O)C(=O)N[C@@H](Cc1ccc(O)cc1)C(=O)N[C@@H](C)C(=O)N[C@@H](C)C(=O)N[C@@H](CCCNC(=N)N)C(=O)N[C@H](C(=O)N[C@@H](CCC(=O)O)C(=O)N[C@@H](C)C(=O)N[C@@H](CC(C)C)C(=O)N[C@@H](CC(C)C)C(=O)N[C@@H](CCCNC(=N)N)C(=O)N[C@@H](C)C(=O)N[C@@H](CC(C)C)C(=O)N[C@@H](CCC(N)=O)C(=O)N[C@@H](CCC(=O)O)C(=O)N[C@@H](CCC(N)=O)C(=O)N[C@@H](CCC(N)=O)C(=O)N[C@@H](CCC(=O)O)C(=O)N[C@@H](CCCCN)C(=O)N[C@@H](CC(N)=O)C(=O)N[C@@H](CCC(=O)O)C(=O)N[C@@H](C)C(=O)N[C@@H](C)C(=O)N[C@@H](CC(C)C)C(=O)N[C@@H](CCCNC(=N)N)C(=O)N[C@@H](CCC(=O)O)C(=O)N[C@@H](CC(C)C)C(N)=O)[C@@H](C)CC [T-1144] (Ac-TTWEAWDRAIAEYAARIEALLRALQEQQEKNEAALREL-NH2; N-terminus and C-terminus assumed)
[1]; [4]
  EC70 Concentration Mix: 8 pM
  EC95 Concentration Mix: 13 pM
[1]; [5]
  Potency increase at EC50: 435.500 fold
  Potency increase at EC70: 444.250 fold
  Potency increase at EC90: > 438 fold and 439.455 fold
  Potency increase at EC95: 458.462 fold
[1]; [6]
  EC70 Concentration Mix: 5 pM
  EC95 Concentration Mix: 7 pM
[1]; [7]
  Potency increase at EC50: 653.250 fold
  Potency increase at EC70: 710.800 fold
  Potency increase at EC90: 805.667 fold
  Potency increase at EC95: 851.429 fold
[1]; [8]
  EC90: 6 pM
[1]; [9]
  EC70 Concentration Mix: 408 pM
  EC95 Concentration Mix: 659 pM
[1]; [10]
  Potency increase at EC50: 8.511 fold
  Potency increase at EC70: 8.711 fold
  Potency increase at EC95: 9.044 fold
[1]; in combination T-1144:C34 (2:1), read-out: EC90 Concentration Mix
  EC90: 543 pM
[1]; [11]
  EC70 Concentration Mix: 232 pM
  EC95 Concentration Mix: 374 pM
[1]; [12]
  Potency increase at EC50: 15.017 fold
  Potency increase at EC70: 15.319 fold
  Potency increase at EC90: 15.695 fold
  Potency increase at EC95: 15.936 fold
[1]; in combination T-1249:T-1144 (1:1), read-out: EC90 Concentration Mix
  EC90: 308 pM
[1]; peptide tested alone
  EC70 Concentration Alone: 3554 pM
  EC95 Concentration Alone: 5960 pM
[1]; [13]
  EC50: 2610 pM
[1]; [14]
  EC90: 4830 pM
[2]; [15]
  Dose reduction: 24.17 fold
[2]; [16]
  Dose reduction: 14.46 fold
[2]; [17]
  EC50: 15500 pM
[3]; in vivo
  pharmacokinetic properties improved: up to 100 fold

## enfuvirtide
[1]; in combination T-20:C34 (8:1)
  EC70 Concentration Mix: 427 pM
  EC95 Concentration Mix: 682 pM
[1]; [18]
  Potency increase at EC50: 61.108 fold
  Potency increase at EC70: 62.834 fold
  Potency increase at EC95: 65.594 fold
[1]; in combination T-20:C34 (8:1), read-out: EC50 Concentration Mix
  EC50: 324 pM
[1]; in combination T-20:C34 (8:1), read-out: EC90 Concentration Mix
  EC90: 564 pM
[1]; [19]
  EC70 Concentration Mix: 2356 pM
  EC95 Concentration Mix: 3537 pM
[1]; [20]
  Potency increase at EC50: 8.928 fold
  Potency increase at EC70: 8.863 fold
  Potency increase at EC95: 8.757 fold
[1]; in combination T-20:Sifuvirtide (4:1), read-out: EC50 Concentration Mix
  EC50: 1850 pM
[1]; in combination T-20:Sifuvirtide (4:1), read-out: EC90 Concentration Mix
  EC90: 3000 pM
[1]; [4]
  EC70 Concentration Mix: 33 pM
  EC95 Concentration Mix: 52 pM
[1]; [5]
  Potency increase at EC50: 791.960 fold
  Potency increase at EC70: 813.030 fold
  Potency increase at EC95: 860.288 fold
[1]; in combination T-20:T-1144 (4:1), read-out: EC50 Concentration Mix
  EC50: 25 pM
[1]; in combination T-20:T-1144 (4:1), read-out: EC90 Concentration Mix
  EC90: 43 pM
[1]; [21]
  EC70 Concentration Mix: 51 pM
  EC95 Concentration Mix: 82 pM
[1]; [22]
  Potency increase at EC50: 521.026 fold
  Potency increase at EC70: 526.078 fold
  Potency increase at EC95: 545.549 fold
[1]; in combination T-20:T-1249 (4:1), read-out: EC50 Concentration Mix
  EC50: 38 pM
[1]; in combination T-20:T-1249 (4:1), read-out: EC90 Concentration Mix
  EC90: 68 pM
[1]; [23]
  EC70 Concentration Mix: 70 pM
  EC95 Concentration Mix: 108 pM
[1]; [24]
  Potency increase at EC50: 366.648 fold
  Potency increase at EC70: 383.286 fold
  Potency increase at EC90: more than 399 fold
  Potency increase at EC95: 414.213 fold
[1]; in combination T-20:T-1249:C34 (8:2:1) vs alone, listed as T20
  Potency increase at EC90: 399.648 fold
[1]; in combination T-20:T-1249:C34 (8:2:1), read-out: EC50 Concentration Mix
  EC50: 54 pM
[1]; in combination T-20:T-1249:C34 (8:2:1), read-out: EC90 Concentration Mix
  EC90: 91 pM
[1]; [6]
  EC70 Concentration Mix: 19 pM
  EC95 Concentration Mix: 29 pM
[1]; [7]
  Potency increase at EC50: 1319.933 fold
  Potency increase at EC70: 1412.105 fold
  Potency increase at EC95: 1542.586 fold
[1]; in combination T-20:T-1249:T-1144 (4:1:1), read-out: EC50 Concentration Mix
  EC50: 15 pM
[1]; [8]
  EC90: 25 pM
[1]; peptide tested alone
  EC70 Concentration Alone: 26830 pM and 20882 pM
  EC95 Concentration Alone: 44735 pM and 30973 pM
[1]; [25]
  EC70 Concentration Alone: 26830 pM
  EC95 Concentration Alone: 44735 pM
[1]; [13]
  EC50: 19800 pM and 16500 pM
[1]; [14]
  EC90: 36400 pM and 26400 pM
[2]; [15]
  Dose reduction: 15.70 fold
[2]; [16]
  Dose reduction: 9.30 fold
[2]; 93IN101, T-20 combined with T-1249
  Dose reduction: 10.90 fold
[2]; [17]
  EC50: 39900 pM
[2]; read-out: EC50 in mixture, 93IN101, T-20+T-1249+T-1144 4:1:1
  EC50: 2540 pM
[2]; read-out: EC50 in mixture, 93IN101, T-20 combined with T-1144, ratios 4:1:1
  EC50: 4290 pM
[2]; read-out: EC50 in mixture, 93IN101, T-20 combined with T-1249, ratios 4:1:1
  EC50: 3660 pM
[3]; in the blood
  half-life in vivo: about 2 hours
